This is an account of results in PMC8815882, “Screening the pandemic response box identified benzimidazole carbamates, Olorofim and ravuconazole as promising drug candidates for the treatment of eumycetoma” (PLoS Neglected Tropical Diseases, 2022).

Like-named read-outs stand apart in the source and are kept apart here.

The test system of the assay is M. mycetomatis genome strain MM55. Description: CLSI M38-A2 based in vitro susceptibility screening (XTT or resazurin), growth at fixed concentration. It counts as cell-based, Madurella mycetomatis. The settings on record: Madurella mycetomatis; for Percent fungal survival at 100 µM: read-out: Percentage survival at 100um, 100 uM A (second replicate column). A general note: Formazan colour is commonly taken as a measure of viable cells.

Setting [1] is: mean, read-out: Percentage survival at 25um, 25 uM mean.
Where [2] appears, read: replicate A, read-out: Percentage survival at 25um, 25 um A.
The mark [3] stands for this setting: replicate B, read-out: Percentage survival at 25um, 25 uM B.
[4] abbreviates: replicate C, read-out: Percentage survival at 25um, 25 uM C.
The mark [5] stands for this setting: mean, read-out: Percentage survival at 100um, 100 uM mean.
Setting [6] is: replicate (first column), read-out: Percentage survival at 100um, 100 uM A.
[7] abbreviates: replicate (second column), read-out: Percentage survival at 100um, 100 uM A.
Setting [8] is: replicate (third column), read-out: Percentage survival at 100um, 100 uM A.
[9] abbreviates: mean of replicates, read-out: Percentage survival at 25um, 25 uM mean.
The mark [10] stands for this setting: mean of replicates, read-out: Percentage survival at 100um, 100 uM mean.
The mark [11] stands for this setting: replicate 1, read-out: Percentage survival at 100um, 100 uM A.
Where [12] appears, read: replicate 2, read-out: Percentage survival at 100um, 100 uM A.
The mark [13] stands for this setting: replicate 3, read-out: Percentage survival at 100um, 100 uM A.
Where [14] appears, read: mean of replicates, MM55, read-out: Percentage survival at 25um, 25 uM mean.
[15] abbreviates: replicate A, MM55, read-out: Percentage survival at 25um, 25 um A.
The mark [16] stands for this setting: replicate B, MM55, read-out: Percentage survival at 25um, 25 uM B.
Where [17] appears, read: replicate C, MM55, read-out: Percentage survival at 25um, 25 uM C.
Where [18] appears, read: mean of replicates, MM55, read-out: Percentage survival at 100um, 100 uM mean.
Setting [19] is: replicate 1, MM55, read-out: Percentage survival at 100um, 100 uM A.
[20] abbreviates: replicate 2, MM55, read-out: Percentage survival at 100um, 100 uM A.
[21] abbreviates: replicate 3, MM55, read-out: Percentage survival at 100um, 100 uM A.
The mark [22] stands for this setting: mean of three replicates, read-out: Percentage survival at 25um, 25 uM mean.
Setting [23] is: mean of three replicates, read-out: Percentage survival at 100um, 100 uM mean.
[24] abbreviates: replicate 1, read-out: Percentage survival at 100um, 100 uM A (first replicate column).
Setting [25] is: replicate 3, read-out: Percentage survival at 100um, 100 uM A (third replicate column).

Consider `Cc1cc(Nc2ccc(F)cc2)nc(SCc2nc3ccccc3[nH]2)n1` [MMV1582498], for which the activity at 25 µM was determined as 92.9% under setting [1], 99.7% under setting [2], 99% under setting [3] and 80.1% under setting [4]. Also, the activity at 100 µM by setting is: under setting [5], 45%; under setting [6], 67.6%; under setting [7], 17.6%; under setting [8], 49.8%.
As to `NC(=O)c1cnc2ccc(S(=O)(=O)c3ccccc3)cc2c1Nc1ccc(O)cc1` [MMV1580848], the activity at 25 µM was determined as 78.8% (mean of three, M. mycetomatis MM55, read-out: Percentage survival at 25um, 25 uM mean); 86.9% (replicate A, M. mycetomatis MM55, read-out: Percentage survival at 25um, 25 um A); 78.3% (replicate B, M. mycetomatis MM55, read-out: Percentage survival at 25um, 25 uM B); 71.3% (replicate C, M. mycetomatis MM55, read-out: Percentage survival at 25um, 25 uM C). Further, the activity at 100 µM is, setting by setting: (mean of three, M. mycetomatis MM55, read-out: Percentage survival at 100um, 100 uM mean) 83.2%; (replicate 1, M. mycetomatis MM55, read-out: Percentage survival at 100um, 100 uM A (first replicate column)) 89.3%; (replicate 3, M. mycetomatis MM55, read-out: Percentage survival at 100um, 100 uM A (third replicate column)) 74.3%. Under “replicate 2, M. mycetomatis MM55”, the Percent fungal survival at 100 µM worked out at 86.1%.
As for `Clc1cccc(-c2nnc(-c3ccccc3)o2)c1` [MMV141011], the activity at 25 µM reads like this: under setting [9], 67.1%; under setting [2], 78.3%; under setting [3], 72.5%; under setting [4], 50.5%. Further, the activity at 100 µM turned out to be 67.1% under setting [10], 58.8% under setting [11], 65.1% under setting [12] and 77.6% under setting [13].
Consider `COc1ccc(CNC(=O)C2CCN([C@H](C)c3cccc4ccccc34)CC2)cc1` [MMV1634397], for which the activity at 25 µM was found to be 45.7% under setting [14], 62.4% under setting [15], 66.9% under setting [16] and 7.76% under setting [17]. Moreover, the activity at 100 µM under setting [18] came out at 4.13%, the activity at 100 µM under setting [19] was found to be 3.82%, the activity at 100 µM under setting [20] was -0.868% and the activity at 100 µM under setting [21] turned out to be 9.43%.
With `CCCCN1C[C@H](O)[C@@H](O)[C@H](O)[C@H]1CO` [MMV1782098], the activity at 25 µM by setting is: under setting [14], 95.7%; under setting [15], 96.4%; under setting [16], 111%; under setting [17], 79.8%. Moreover, the activity at 100 µM is, setting by setting: under setting [18], 68%; under setting [19], 94.4%; under setting [20], 27.4%; under setting [21], 82.2%.
Regarding `OC(Cn1cncn1)(Cn1cncn1)c1ccc(F)cc1F` [MMV002337], the activity at 25 µM by setting is: under setting [1], 113%; under setting [2], 137%; under setting [3], 52.7%; under setting [4], 150%. For the same compound, the activity at 100 µM reads like this: under setting [5], 1.38%; under setting [6], -3.44%; under setting [7], 4.59%; under setting [8], 3.01%.
Regarding `CS(=O)(=O)c1ccc(Oc2ccc(Cl)cc2)cc1` [MMV1634404], the activity at 25 µM runs as follows: under setting [22], 85.3%; under setting [2], 90%; under setting [3], 98%; under setting [4], 68%. Also, the activity at 100 µM by setting is: under setting [23], 50.7%; under setting [24], 44.2%; under setting [25], 59%. Besides, the Percent fungal survival at 100 µM (replicate 2) was 49%.
As for `C[N+]1(C)CCCC(OC(=O)C(O)(c2ccccc2)c2ccccc2)C1` (centres unmarked) [MMV002676], the activity at 25 µM worked out at 79.3% under setting [9], 73.4% under setting [2], 85.9% under setting [3] and 78.5% under setting [4]. The activity at 100 µM by setting is: under setting [10], 79.9%; under setting [11], 85.5%; under setting [12], 72.6%; under setting [13], 81.5%.
For the compound `O=P(O)(O)C(CCCc1cccc(Oc2ccccc2)c1)S(=O)(=O)O` (centres unmarked) [MMV1782215], the activity at 25 µM under setting [22] stood at 69.1%, the activity at 25 µM under setting [2] turned out to be 82.3%, the activity at 25 µM under setting [3] is 68.2% and the activity at 25 µM under setting [4] worked out at 56.8%. The activity at 100 µM was determined as 68.9% under setting [23], 79.5% under setting [24] and 62% under setting [25]. Further, the Percent fungal survival at 100 µM (replicate 2) was determined as 65.1%.
For the compound `O=C(/C=C\n1cnc(-c2cc(C(F)(F)F)cc(C(F)(F)F)c2)n1)NNc1ccccn1` [MMV1580493], the activity at 25 µM came out at 67.9% under setting [9], 79.7% under setting [2], 83.9% under setting [3] and 40.3% under setting [4]. The activity at 100 µM is, setting by setting: under setting [10], 77.3%; under setting [24], 119%; under setting [25], 32.4%. For the same compound, the Percent fungal survival at 100 µM (replicate 2) came to 80%.
As for `C=C[C@]1(C)C[C@@H](OC(=O)CS[C@@H]2C[C@H]3CC[C@@H](C2)N3C)[C@]2(C)[C@H](C)CC[C@]3(CCC(=O)[C@H]32)[C@@H](C)[C@@H]1O` [MMV1633674], the activity at 25 µM is, setting by setting: under setting [9], 89.3%; under setting [2], 84.6%; under setting [3], 97.9%; under setting [4], 85.5%. For the same compound, the activity at 100 µM under setting [10] came out at 48.4%, the activity at 100 µM under setting [11] was -3.26%, the activity at 100 µM under setting [12] was found to be 61.3% and the activity at 100 µM under setting [13] came to 87%.
Consider `O=C(O)c1ccc(-n2nc(-c3ccccc3O)nc2-c2ccccc2O)cc1` [MMV640014], for which the activity at 25 µM reads like this: under setting [1], 87%; under setting [2], 94.6%; under setting [3], 88.3%; under setting [4], 78%. Moreover, the activity at 100 µM is, setting by setting: under setting [5], 78.4%; under setting [6], 85.5%; under setting [7], 73.2%; under setting [8], 76.5%.
In the case of `O=C(O)c1ccc(-c2ccc(O[C@H]3O[C@H](CO)[C@@H](O)[C@H](O)[C@@H]3O)cc2)cc1` [MMV1633970], the activity at 25 µM reads like this: under setting [9], 80.8%; under setting [2], 83.4%; under setting [3], 84.3%; under setting [4], 74.7%. Moreover, the activity at 100 µM came to 73.9% under setting [10], 68.9% under setting [11], 82.1% under setting [12] and 70.6% under setting [13].
`Cc1c[nH]c(=O)nc1NCc1ccccc1` [MMV1582489]: the activity at 25 µM reads like this: under setting [9], 93.3%; under setting [2], 97.9%; under setting [3], 91.7%; under setting [4], 90.3%. The activity at 100 µM under setting [10] amounted to 88.7%, the activity at 100 µM under setting [11] is 101%, the activity at 100 µM under setting [12] came to 80.8% and the activity at 100 µM under setting [13] turned out to be 84.5%.
As for `CCOCc1nc2c(N)nc3ccccc3c2n1CC(C)(C)O` [MMV690547], the activity at 25 µM under setting [22] came out at 98%, the activity at 25 µM under setting [2] was 95.3%, the activity at 25 µM under setting [3] was 111% and the activity at 25 µM under setting [4] stood at 87.7%. Further, the activity at 100 µM by setting is: under setting [23], 90.4%; under setting [24], 97%; under setting [25], 87.9%. The Percent fungal survival at 100 µM (replicate 2) turned out to be 86.2%.
`CCCCc1ccc(-c2nc(C)c(C(=O)OC)s2)cc1` [MMV1634392]: the activity at 25 µM runs as follows: under setting [14], 77.2%; under setting [15], 84.6%; under setting [16], 81.9%; under setting [17], 65.1%. The activity at 100 µM worked out at 65.3% under setting [18], 48.8% under setting [19], 54.8% under setting [20] and 92.3% under setting [21].
